# Source: patent publication US20250057808A1, “COMPOSITION COMPRISING BETA LACTAM FOR TREATING ALCOHOL DEPENDENCE AND ALCOHOL ASSOCIATED DISEASES OR CONDITIONS” (Temple University of the Commonwealth System of Higher …, priority 2023, published 2025)
# “Also recorded” adds a separate entry of the source.
# What was measured:
# PPAR-γ = assay: Western blot PPAR-γ expression in liver; format: in vivo, P rats; details: MC-100093 50 mg/kg or ceftriaxone 200 mg/kg i.p. 5 days; between all groups
# Description: Western Blot assay was performed to measure changes in the expression of GLT-1, xCT, mGluR1, mGluR5, PPAR-α, PPARγ, GAPDH and β-tubulin in the NAc-core and NAc-shell as described in previous publications. A lysis buffer containing protease and phosphatase inhibitors was used to generate a homogenate of liver, Nac-core, and Nac-shell samples. The amount of protein was quantified using a detergent compatible protein assay (Bio-Rad, Hercules, CA, USA) for each sample. Samples were mixed with laemmli dye and loaded with equal amounts on polyacrylamide gels (10%), which separated the proteins using electrophoresis. After that, polyvinylidene difluoride (PVDF) membranes were used to transfer the proteins electrophoretically from the gels. Membranes were incubated in 5% free-fat milk in Tris-buffered saline with Tween-20 (TBST) for 30-60 minutes at room temperature. Membranes were then incubated with appropriate primary antibodies overnight at 4° C.: rabbit anti-GLT-1 (1:5000, Abcam, ab41621), rabbit anti-xCT (1:2000, Abcam, ab175186), rabbit anti-mGluR1 (1:1000, Abcam, ab82211), rabbit anti-mGluR5 (1:1000, Abcam, ab76316), rabbit anti-PPAR-α (1:1000, Abcam, ab24509), and rabbit anti-PPARγ (1:1000, Abcam, ab209350). […]
# GLT-1 [1] = details: earlier studies, chronic ethanol; cited from earlier work
# xCT [2] = details: earlier studies, chronic ethanol; cited from earlier work
# PPAR-α = assay: Western blot PPAR-α expression in NAc-core, NAc-shell and liver; format: in vivo, P rats; details: MC-100093 50 mg/kg or ceftriaxone 200 mg/kg i.p. 5 days; among all groups
# Description: (§1) We used micro-punch procedure to dissect the subregions of the NAc such as NAc-core and NAc-shell as well as the subregions of prefrontal cortex such as infralimbic (IL) and prelimbic (PL) from the brain on day 6 after the last injection day. P rats were removed from the cage and rapidly euthanized by CO2 inhalation followed by rapid decapitation with a guillotine. Brains were isolated and immediately frozen on dry ice and stored at −80° C. The stereotaxic coordinates provided by Paxinos and colleague's rat brain stereotactic atlas was used to isolate NAc-core and NAc-shell using a cryostat apparatus (−20° C.), which then kept at −80° C. for later western blot analyses.
# (§2) Western Blot assay was performed to measure changes in the expression of GLT-1, xCT, mGluR1, mGluR5, PPAR-α, PPARγ, GAPDH and β-tubulin in the NAc-core and NAc-shell as described in previous publications. A lysis buffer containing protease and phosphatase inhibitors was used to generate a homogenate of liver, Nac-core, and Nac-shell samples. The amount of protein was quantified using a detergent compatible protein assay (Bio-Rad, Hercules, CA, USA) for each sample. Samples were mixed with laemmli dye and loaded with equal amounts on polyacrylamide gels (10%), which separated the proteins using electrophoresis. After that, polyvinylidene difluoride (PVDF) membranes were used to transfer the proteins electrophoretically from the gels. Membranes were incubated in 5% free-fat milk in Tris-buffered saline with Tween-20 (TBST) for 30-60 minutes at room temperature. Membranes were then incubated with appropriate primary antibodies overnight at 4° C.: rabbit anti-GLT-1 (1:5000, Abcam, ab41621), rabbit anti-xCT (1:2000, Abcam, ab175186), rabbit anti-mGluR1 (1:1000, Abcam, ab82211), rabbit anti-mGluR5 (1:1000, Abcam, ab76316), rabbit anti-PPAR-α (1:1000, Abcam, ab24509), and rabbit anti-PPARγ (1:1000, Abcam, ab209350). Mouse anti-β-tubulin (1:1000; BioLegend) was used as a loading control antibody for the brain samples and rabbit anti-GAPDH (1:5000; cell signaling) was used as a loading control antibody for the liver samples. Membranes were washed five times on the next day with TBST followed by incubation with appropriate secondary antibody (1:5000) for 90 minutes at room temperature. Chemiluminescent reagents (Super Signal West Pico, Pierce Inc.) were used to detect the proteins using a GeneSys imaging system to develop the digitized blot images. Water-control group data were represented as 100% and all other values were expressed relative to control group to detect changes in the expression of the protein of interest in the brain and liver samples.
# (§3) All statistical analyses were conducted with Graphpad Prism software, with p-values of 0.05 or less being statistically significant. […]
# xCT [3] = assay: Western blot xCT expression in NAc-core, NAc-shell and liver (50 mg/kg study); format: in vivo, P rats; details: MC-100093 50 mg/kg or ceftriaxone 200 mg/kg i.p. 5 days
# Description: as §1, §2
# (§4) All statistical analyses were conducted with Graphpad Prism software, with p-values of 0.05 or less being statistically significant. We performed a two-way (mixed model) ANOVA followed by Bonferroni multiple comparison post-hoc test to analyze 24 h ethanol consumption, 24 h water consumption, and daily body weight. For the Western blot and oil red O staining analysis, we performed one-way ANOVA with Newman-Keuls as a post hoc multiple comparison test to measure differences between groups as a percentage (relative to control values).
# [4] = Ethanol drinking paradigm, three-bottle choice (MC-100093 50 mg/kg vs ceftriaxone 200 mg/kg); format: in vivo, P rats
# Description: P rats were received from Indiana University School of Medicine (Indianapolis, IN, USA), and were housed in a 21° C. on a 12/12 h light/dark cycle-maintained room where they had free access to water and food. All experimental procedures were approved by the Institutional Animal Care and Use Committee (IACUC) of The University of Toledo, in accordance with the guidelines governing the use of animals in research of the National Institutes of Health as described in the Guidefor the Care and Use of Laboratory Animals.
# We used an ethanol drinking paradigm as described previously by Alhaddad, et al. (2014). Briefly, animals started the experimental drinking procedure at age of 90 days. The animals had five weeks of exposure to continuous three-bottle choice drinking, 0%, 15% and 30%, v/v ethanol in water, available concurrently. Daily measurement of ethanol intake was performed (g of ethanol intake/kg of body weight/day). We measured the baseline ethanol drinking by average the intake during the last three weeks. Three groups of P rats (n=8-9/group) exposed to the five weeks ethanol exposure. At week 6, rats in each group received daily intraperitoneal injection of either MC-100093 at dose of 50 mg/kg (Ethanol-MC group), Ceftriaxone at dose of 200 mg/kg (Ethanol-CEF group, which also serves as positive control), or equivolume of saline vehicle (Ethanol group) for five days. This paradigm results in pharmacologically relevant blood alcohol concentration (50-200 mg %). Following the criteria for the development of ethanol dependence, rats whose average ethanol intake <4 g/kg/day were excluded from the study. Beside the ethanol exposed groups, another group of P rats (n=8) exposed to only water and food throughout the exposure procedures (control group).
# as §4
# [5] = earlier and literature studies in rats; cited from earlier work
# GLT-1 [6] = assay: Western blot GLT-1 expression in NAc-core, NAc-shell and liver (50 mg/kg study); format: in vivo, P rats; details: MC-100093 50 mg/kg or ceftriaxone 200 mg/kg i.p. 5 days
# Description: as §1, §2, §4
# mGluR5 = assay: Western blot mGluR5 expression in NAc-core and NAc-shell; format: in vivo, P rats; details: MC-100093 50 mg/kg or ceftriaxone 200 mg/kg i.p. 5 days
# Description: as §1, §2, §3
# fat content in the liver = assay: Liver Oil Red O staining (fat content); format: in vivo, P rats; details: MC-100093 50 mg/kg or ceftriaxone 200 mg/kg i.p. 5 days, control, ethanol, ethanol-CEF groups
# Description: To measure the fat content in the liver sections, we used Oil Red O (Sigma, CAS Number 1320-06-5) staining on 10 μm thick formalin-fixed liver sections and placed in slides for further staining. The slides were stained with freshly prepared Oil Red O working solution 15 minutes then rinsed with 60% isopropanol. Slides were then rinsed with distilled water and mounted in aqueous mounting media and prepared for imaging. The degree of Oil Red O staining was determined at 20× magnification using a color video camera attached to an Olympus VS120 slide scanning microscope. Olympus OlyVIA software was used to analyze the images. The lipid droplets were quantified using Image J pro (NIH). Data are presented as the mean+SEM of the Oil Red O staining for each group.
# as §4
# mGluR1 = assay: Western blot mGluR1 expression in NAc-core and NAc-shell; format: in vivo, P rats; details: MC-100093 50 mg/kg or ceftriaxone 200 mg/kg i.p. 5 days; among all groups
# Description: as §1, §2, §3
# [7] = ceftriaxone 200 mg/kg i.p. vs MC-100093 50 mg/kg i.p., days 2 through 5
smiles,measurement,setting,value
"CO/N=C(\C(=O)N[C@@H]1C(=O)N2C(C(=O)O)=C(CSc3nc(=O)c(=O)[nH]n3C)CS[C@H]12)c1csc(N)n1 [Ceftriaxone, reference compound]",Protein expression of PPAR-γ in the liver,PPAR-γ,not changed significantly
same,GLT-1 expression in the NAc,GLT-1 [1],attenuation of downregulation of GLT-1 as well as xCT expression; also recorded: upregulated GLT-1 and xCT expression in the NAc
same,xCT expression in the NAc,xCT [2],attenuation of downregulation of GLT-1 as well as xCT expression; also recorded: upregulated GLT-1 and xCT expression in the NAc
same,Protein expression of PPAR-α in the NAc-core,PPAR-α,non-significant differences; also recorded: did not detect significant changes
same,Protein expression of PPAR-α in the NAc-shell,PPAR-α,non-significant differences; also recorded: did not detect significant changes
same,Protein expression of xCT in the NAc-core,xCT [3]; among all groups,non-significant difference; also recorded: no significant difference
same,Protein expression of xCT in the liver,xCT [3]; between all groups,no significant differences
same,Protein expression of xCT in the NAc-shell,xCT [3]; vs Ethanol group,significantly higher level of xCT; also recorded: significantly increased xCT expression
same,Body weight (grams),[4]; MC-100093 50 mg/kg i.p. or ceftriaxone 200 mg/kg i.p. 5 days,"Neither MC-100093 (50 mg/kg, i.p.) nor Ceftriaxone (200 mg/kg, i.p.) treatment has significant effect; also recorded: no significant effects"
same,Water intake (mL/day),"[4]; MC-100093 50 mg/kg i.p. or ceftriaxone 200 mg/kg i.p. 5 days, vs Ethanol-Saline group (MC-100093: at day 5 only)",significant increase in water consumption from day 1 through day 5; also recorded: significant increase in water consumption from day 2 through day 5
same,Ethanol consumption (g/kg of average body weight/24 hr),"[4]; P rats after 5 wk ethanol, MC-100093 50 mg/kg i.p. or ceftriaxone 200 mg/kg i.p. daily 5 days, vs Ethanol-Saline group",significant decrease in ethanol consumption from day 1 through day 5; also recorded: significantly reduced ethanol consumption from day 2 through day 5; also recorded: attenuated ethanol drinking behavior
same,"Ethanol consumption, Ethanol-Ceftriaxone compared to Ethanol-MC group",[4]; [7],significantly lower; also recorded: attenuate drinking behavior to a greater extent than MC-100093
same,"Water consumption, Ethanol-Ceftriaxone compared to Ethanol-MC group",[4]; [7],significantly higher
same,Ethanol drinking behavior / consumption,[5],decreased ethanol consumption in rats; also recorded: attenuated ethanol drinking behaviors
same,Protein expression of GLT-1 in the liver,GLT-1 [6],normalized GLT-1 level; also recorded: normalize the PPAR-α and GLT-1 levels in the liver
same,Protein expression of GLT-1 in the NAc-core,"GLT-1 [6]; among Control, Ethanol, Ethanol-MC, Ethanol-CEF",non-significant difference; also recorded: no significant difference
same,Protein expression of GLT-1 in the NAc-shell,GLT-1 [6]; vs Ethanol group,significantly increased
same,Protein expression of mGluR5 in the NAc-core,mGluR5; among all groups,non-significant difference; also recorded: no significant difference
same,Protein expression of mGluR5 in the NAc-shell,mGluR5; vs control or ethanol groups,"no significant change in the expression of mGluR5; also recorded: significantly downregulated in ethanol group compared to control, Ethanol-MC (50 mg/kg), and Ethanol-CEF (200 mg/kg) groups; also recorded: normalizing levels of mGluR5"
same,Liver fat content (Oil Red O stained fat droplets),fat content in the liver,"no significant difference in fat content between control, ethanol-MC, and ethanol-CEF groups; also recorded: significantly higher fat droplet content in ethanol group (p<0.05) compared to control, ethanol-MC or ethanol-CEF groups; also recorded: alleviated the liver steatosis"
same,Protein expression of mGluR1 in the NAc-core,mGluR1,non-significant difference; also recorded: no significant difference
same,Protein expression of mGluR1 in the NAc-shell,mGluR1,non-significant differences; also recorded: no significant difference
Cc1ccc(C)c(OCCCC(C)(C)C(=O)O)c1 [Gemfibrozil],Ethanol drinking behavior / consumption,[5],reduced ethanol drinking behavior in rats
CC1CC=NN1C(=O)c1cccnc1 (centres unmarked) [MS-153],GLT-1 expression in the NAc,GLT-1 [1],upregulated GLT-1 and xCT expression in the NAc
same,xCT expression in the NAc,xCT [2],upregulated GLT-1 and xCT expression in the NAc
same,Ethanol drinking behavior / consumption,[5],attenuated ethanol drinking behaviors
